≈ marks a conversion by molar mass, not a printed value. Bounds are passed on as bounds.

The conditions of data set [1]: background statement, cited from earlier work.
Data set [2] deals with δ opioid receptors (Homo sapiens, UniProt P41143). To be noted: background statement; cited from earlier work.
Data set [3] is described as follows: In vivo test of rats: pharmacokinetics after oral administration. As to conditions: male, SD, rat, 10 mg/kg, oral administration of dezocine in rats, dose of dezocine 10mpk. The procedure: LC-MS/MS method was applied for the determination of the drug concentration in plasma at different times after the example compounds were orally administered to rats in order to study the pharmacokinetic behavior of the compounds of the invention in vivo in rats and evaluate their pharmacokinetic characteristics.
Test Animals: healthy Adult male SD rats (weight 200-300 g, 3, fasted), provided by SLAC company;
Administration and Dosage: (16 mg/kg or 24 mg/kg, 10 mL/kg, 5% 1,2-propanediol (1,2-Propanediol, Shanghai Titan Technology Co., Ltd. Lot No.: P1057349)) was administered via oral gavage to SD rats;
Blood collection: firstly, the animals which were selected to meet the test requirements prior to administration were weighed. The rats were bound before the blood collection, blood from each administered rat was taken at predetermined time points, (blood was collected at 0.083, 0.25, 0.5, 1, 2, 4, 6, 8 h before and after administration respectively, 9 time points in total), about 150 μl of blood was collected via orbital vein. Blood was transferred to a 1.5 ml tube to which K2EDTA was added previously. The collected blood sample was put on ice, and centrifuged to obtain plasma sample (2000 g, 5 min under 4° C.) within 15 minutes. All the plasma samples were stored at approximately −70° C. until analysis.
LC/MS/MS method was applied to determine the concentrations of the drug. […]

A short description of data set [4]: Potency compared with the existing dezocine (statement, no method given).
Data set [5] is described as follows: Solubility test at room temperature. It counts as physicochemical. To be noted: room temperature, shaken 24 h. The procedure: The solubility of the crystal form A, the crystal form C and the free base in 0.1 M HCL, pH 4.5, or pH 6.8 buffer or water was tested at room temperature. In the test, the standard curves of the crystal form A, the crystal form C and the free base were plotted respectively. Subsequently, a appropriate amount of the crystal form A, the crystal form C and the free base was weighed respectively, to which was added a appropriate amount of solvent. The mixture was shaken at room temperature for 24 h, centrifuged. The supernatant was taken and the solubility was determined. The results are shown in Table 7, (the concentration unit is mg/mi).

Data set [6] concerns the target T1, CYP3A4 (Homo sapiens, UniProt P08684).
T1 construct: Add 200 μL of 0.2 mg/mL HLM to the assay wells; from tissue; host or cells: liver microsomes (HLM)
The data set can be described thus: Inhibition of CYP enzyme (CYP3A4, midazolam substrate, HLM). The format is in vitro ADME. How it is done:
1. Preheat 0.1 M potassium phosphate buffer (K-buffer), pH 7.4:
100 mM K-Buffer: mix 9.5 mL Stock A into 40.5 mL Stock B, bring total volume to 500 mL with Milli-Q water, titrate the buffer with KOH or H3PO4 to pH 7.4.
Stock A (1 M monobasic potassium phosphate): 136.5 g of monobasic potassium phosphate in 1 L of Milli-Q water.
Stock B (1 M dibasic potassium phosphate): 174.2 g of dibasic potassium phosphate in 1 L of Milli-Q water.
2. Prepare serial dilution for test compounds and reference inhibitors (400×) in a 96-well plate:
2.1 Transfer 8 μL of 10 mM test compounds to 12 μL of ACN.
2.2 Prepare individual inhibitor spiking solution for reference: 8 μL of DMSO stock to 12 μL of ACN.
2.3 Prepare 1:3 serial dilutions in DMSO:ACN mixture (v/v: 40:60).
3. Prepare 4×NADPH cofactor (66.7 mg NADPH in 10 mL 0.1 M K-buffer, pH7.4).
4. Prepare 4×substrate (2 mL for each isoform) as indicated in the table below (add HLM where required on ice).
5. Prepare 0.2 mg/mL HLM solution (10 μL of 20 mg/mL to 990 μL of 0.1 M K-buffer) on ice.
6. Add 200 μL of 0.2 mg/mL HLM to the assay wells and then add 1 μL of test compounds or reference compounds into the designated wells on ice.
7. Add following solutions (in duplicate) in a 96-well assay plate on ice:
7.1 Add 30 μL of 2×test compounds and reference compound in 0.2 mg/mL HLM solution;
7.2 Add 15 μL of 4×substrate solution.
8. […]

For data set [7], the target named is T2, hERG potassium ion channel (Homo sapiens, UniProt Q12809).
T2 construct: host or cells: CHO cells stably expressing hERG
Kind of data set: Inhibition of hERG potassium ion channel, manual whole-cell patch clamp in CHO hERG cells. The format is cell-based. How it is done: 2.1.1 Cells used in this experiment are CHO cell lines (supplied by Sophion Bioscience, Denmark) which are hERG cDNA transfectant and stably express hERG channels, cell progeny is P15. Cells are cultured in medium containing the following ingredients Invitrogen): Ham's F12 medium, 10% (v/v) inactivated fetal bovine serum, […] hygromycin B, […] Geneticin.
2.1.2 CHO hERG cells were grown in Petri dishes containing the above medium and cultured in an incubator containing 5% CO2 at 37° C. […]
In this experiment, whole-cell current recording was performed using a manual patch clamp system (HEKA EPC-10 signal amplification and digital conversion system, purchased from HEKA Electronic, Germany) The round glass slide of which surface CHO hERG cells were grown on was placed in an electrophysiological recording slot under an inverted microscope. […] The hERG potassium current recorded in the above steps should be superfused for test drug after the steady perfusion state of the extracellular fluid in the recording slot is stabilized until the inhibition of the hERG current by the drug reached a steady state. […]
The test data were analyzed by the data analysis software provided by HEKA Patchmaster (V2x73.2), Microsoft Excel and Graphpad Prism 5.0.

Data set [8] in a line: Stability test of free base, crystal form A and crystal form C (content and related substance). As to conditions: 5° C. The format is physicochemical. How it is done:
The crystal form and purity change were measured respectively on 3rd and 7th day. The results are shown in Table 6, FIGS. 22, 23, 24 and 25. […]

T2 sequence (Q12809 whole entry): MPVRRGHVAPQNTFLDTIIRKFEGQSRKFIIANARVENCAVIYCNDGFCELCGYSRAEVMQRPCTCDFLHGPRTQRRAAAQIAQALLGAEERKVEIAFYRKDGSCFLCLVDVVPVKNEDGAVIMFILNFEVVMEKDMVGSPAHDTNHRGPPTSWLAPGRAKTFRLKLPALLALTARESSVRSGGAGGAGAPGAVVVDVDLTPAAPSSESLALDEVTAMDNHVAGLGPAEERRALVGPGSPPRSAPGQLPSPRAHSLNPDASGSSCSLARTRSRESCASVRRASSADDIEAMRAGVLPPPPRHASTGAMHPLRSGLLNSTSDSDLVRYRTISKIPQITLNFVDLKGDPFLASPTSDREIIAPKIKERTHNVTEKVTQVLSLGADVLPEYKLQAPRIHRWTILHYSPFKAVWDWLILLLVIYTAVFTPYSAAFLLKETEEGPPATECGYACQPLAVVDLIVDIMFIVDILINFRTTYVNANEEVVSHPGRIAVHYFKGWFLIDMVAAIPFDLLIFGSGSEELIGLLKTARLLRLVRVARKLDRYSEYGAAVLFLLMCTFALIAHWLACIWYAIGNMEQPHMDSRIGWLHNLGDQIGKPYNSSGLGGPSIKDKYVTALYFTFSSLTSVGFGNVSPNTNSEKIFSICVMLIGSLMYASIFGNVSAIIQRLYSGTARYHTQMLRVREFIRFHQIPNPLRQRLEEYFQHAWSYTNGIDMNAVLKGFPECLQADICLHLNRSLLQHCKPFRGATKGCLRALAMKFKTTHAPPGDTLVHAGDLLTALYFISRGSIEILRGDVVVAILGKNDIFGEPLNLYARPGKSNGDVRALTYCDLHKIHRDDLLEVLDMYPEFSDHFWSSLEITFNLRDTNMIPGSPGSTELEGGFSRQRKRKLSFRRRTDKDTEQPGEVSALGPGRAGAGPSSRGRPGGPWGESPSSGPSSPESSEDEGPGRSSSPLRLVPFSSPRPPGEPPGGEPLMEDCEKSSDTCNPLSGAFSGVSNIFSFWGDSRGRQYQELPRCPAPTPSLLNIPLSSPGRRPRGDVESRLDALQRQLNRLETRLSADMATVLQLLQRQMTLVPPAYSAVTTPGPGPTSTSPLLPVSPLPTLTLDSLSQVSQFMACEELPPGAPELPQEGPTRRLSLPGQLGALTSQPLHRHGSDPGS
T1 sequence (P08684 whole entry): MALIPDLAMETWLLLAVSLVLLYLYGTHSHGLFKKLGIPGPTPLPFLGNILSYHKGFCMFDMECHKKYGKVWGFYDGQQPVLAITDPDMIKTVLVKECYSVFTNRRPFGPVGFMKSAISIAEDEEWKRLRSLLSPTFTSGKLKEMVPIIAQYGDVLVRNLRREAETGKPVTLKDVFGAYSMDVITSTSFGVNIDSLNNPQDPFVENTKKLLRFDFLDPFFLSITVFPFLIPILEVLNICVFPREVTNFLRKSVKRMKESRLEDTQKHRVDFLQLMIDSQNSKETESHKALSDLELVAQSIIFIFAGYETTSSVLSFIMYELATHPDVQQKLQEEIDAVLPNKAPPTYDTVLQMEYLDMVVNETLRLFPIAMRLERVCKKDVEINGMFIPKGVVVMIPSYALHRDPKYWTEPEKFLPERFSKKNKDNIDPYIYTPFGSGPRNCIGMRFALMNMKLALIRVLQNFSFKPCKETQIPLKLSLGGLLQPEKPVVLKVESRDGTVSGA
Sequence of δ opioid receptors (P41143 whole entry): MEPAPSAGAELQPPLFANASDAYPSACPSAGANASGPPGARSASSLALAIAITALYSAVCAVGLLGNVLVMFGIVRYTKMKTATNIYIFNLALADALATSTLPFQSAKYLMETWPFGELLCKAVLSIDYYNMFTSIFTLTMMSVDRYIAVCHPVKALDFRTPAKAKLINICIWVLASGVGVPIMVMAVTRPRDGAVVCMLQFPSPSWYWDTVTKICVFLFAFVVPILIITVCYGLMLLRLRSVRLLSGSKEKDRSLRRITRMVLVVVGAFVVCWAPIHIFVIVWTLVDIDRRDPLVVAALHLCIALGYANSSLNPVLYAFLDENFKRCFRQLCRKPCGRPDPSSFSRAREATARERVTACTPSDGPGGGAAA

One may read the AUC as concentration integrated over time. A lower AUC goes with less exposure. For `C[C@@]12CCCCC[C@@H](Cc3ccc(O)cc31)[C@@H]2N` [dezocine], the oral bioavailability in data set [1] is reported as no more than 5%. The “time after which the blood drug concentration falls below the effective level” value in data set [1] (injection) is 2 to 3 h. The “activity on δ opioid receptors (in words)” value in data set [2] is recorded as “very weak”. This molecule also showed an AUC in data set [3] of 58.6 ng·h/mL.
Broadly, the solubility is the dissolved amount per volume that the medium holds. A higher solubility goes with much dissolved substance. Turning to `C[C@@]12CCCCC[C@@H](Cc3ccc(OC(=O)NC4COC4)cc31)[C@@H]2N` [free base of Compound X], the “potency compared with the existing dezocine” value in data set [4] is “increased more than three-fold”. For the same molecule, in data set [5] (0.1M HCL), the “Final pH” value came out at 1.30, the phenomenon entry was “Flocculent” and the solubility amounted to 18860 µg/mL (≈ 54.8 mM). Besides, in data set [5] (H2O), the “Final pH” value is 8.61, the phenomenon result is on record as “turbid” and the solubility is 50 µg/mL (≈ 0.145 mM). Besides, in data set [5] (pH 4.5 buffer), the “Final pH” value is recorded as 6.41, the phenomenon entry was “turbid” and the solubility turned out to be 3750 µg/mL (≈ 10.9 mM). Besides, in data set [5] (pH 6.8 buffer), the “Final pH” value amounted to 6.78, the phenomenon entry is recorded as “turbid” and the solubility worked out at 2030 µg/mL (≈ 5.89 mM). Also, the “inhibitory activity on CYP3A4 (in words)” value in data set [6] (1 μM) is “little inhibitory activity”. Besides, in data set [6] (human, human liver microsomes, pH 7.4, probe midazolam, substrate midazolam (M), 0.1 mg/mL HLM, read-out: CYP3A4(M) inhibition rate/1 μM), the inhibition at 5 min, 1 μM came to 23.8%. Further, the “inhibitory activity on the hERG potassium ion channel (in words)” value in data set [7] (10 μM) is “little inhibitory activity”. In addition, the inhibition at 10 μM in data set [7] (human, CHO cells stably expressing hERG channels, CHO hERG cells, patch clamp, ~25° C.) was determined as 20.6%. Moreover, in data set [8] (0 d), the “RRT(%) 0.76 (related substance)” value was 1.19%, the “RRT(%) 1.29 (related substance)” value amounted to 3.35%, the “RRT(%) 1.53 (related substance)” value was 0.18% and the “RRT(%) 1.59 (related substance)” value worked out at 0.97%. Also, the “RRT(%) 1.75 (related substance)” value in data set [8] (0 d) amounted to 0.43%. For the same molecule, in data set [8] (0 d (control)), the “Area (%)” value is given as 93.88%, the “Total impurity (%)” value is listed as 6.12% and the character result is reported as “off-white solid”.

These data come from patent US20210087156A1, “PHARMACEUTICALLY ACCEPTABLE SALTS OF BENZODICYCLOALKANE DERIVATIVE, P[…] THEREOF, AND APPLICATION THEREOF” (priority 2018, published 2021).
